Reference: patent US8603513B2 (priority 2007, dated 2013)
Values joined by “and” are separate entries in the source; they are usually repeats but may differ in a detail not shown here. Equal entries are not always repeated. Where two headings read alike, the source gives them in different places.

Key:
[1] = system: Staphylococcus aureus MN 8; format: cell-based
[2] = system: TSST-1 toxin produced by S. aureus; format: cell-based, Staphylococcus aureus MN 8
[3] = system: Lactobacillus gasseri (ATCC 9857); format: cell-based
[4] = system: Lactobacillus iners (LMG 18916); format: cell-based
[5] = system: Lactobacillus crispatus (LMG 12005); format: cell-based

O=C1O[C@H]([C@@H](O)CO)C(O)=C1O [Calcium ascorbate, calcium ascorbate]
Change in S. Aureus CFU/ml vs. control [1]: >2 log | growth of S. aureus relative to controls [1]: virtually eliminate the growth

[Ca+2].[Cl-].[Cl-] [Calcium chloride]
Change in S. Aureus CFU/ml vs. control [1]: ≦1 log | % TSST-1 Change (ug/ml) vs. control [2]: 82% | % TSST-1 Change (ug/ml/mM) vs. control [2]: 2.5% and 1.1% | % TSST-1 Change (ug/ml) vs. control ([2]; 18-20 h, 37° C.): 37%

CC(O)C(=O)[O-].CC(O)C(=O)[O-].[Ca+2] (stereo not shown) [Calcium lactate]
Change in L. gasseri vs. control [3]: <1 log | Change in L. iners vs. control [4]: <1 log | Change in L. cripatus vs. control [5]: <1 log | Change in S. Aureus CFU/ml vs. control [1]: <1 log | % TSST-1 Change (ug/ml) vs. control [2]: 49% and 89% and 90% | % TSST-1 Change (ug/ml/mM) vs. control [2]: 5.6% and 1.7%

CCCCCCCCCCCCCCCCCC(=O)O [Calcium stearate, calcium stearate]
% TSST-1 Change (ug/ml) vs. control [2]: 65% and 62% | % TSST-1 Change (ug/ml/mM) vs. control [2]: 6.6% and 0.6%

[Cl][Cu][Cl] [Copper chloride]
Change in S. Aureus CFU/ml vs. control [1]: >3 log

[Cl][Fe][Cl] [Ferrous chloride]
Change in S. Aureus CFU/ml vs. control [1]: >2 log

[Cl-].[Cl-].[Mg+2] [Magnesium chloride]
Change in S. Aureus CFU/ml vs. control [1]: ≦1 log | % TSST-1 Change (ug/ml) vs. control [2]: 47%

[Cl-].[Cl-].[Zn+2] [Zinc chloride]
Change in S. Aureus CFU/ml vs. control [1]: >2 log
